Drawing on article PMC6934184, “Selective DNA-PKcs inhibition extends the therapeutic index of localized radiotherapy and chemotherapy” (The Journal of Clinical Investigation, 2019), this text covers inhibition for one molecule.

The target of this test is T1, JAK3 (Homo sapiens, UniProt P52333).
T1 construct: purchased Thermo Fisher Scientific (Life Technologies) SelectScreen
As to the kind of experiment: SelectScreen Z'LYTE. The class given is biochemical. Summed up: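 Percent values come from Thermo SelectScreen profiling of NU5455, combining activity and binding assays. CSF1R was run in Z'LYTE format at Km app ATP, and CAMK1 in Adapta format with ATP listed at 10.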

Molecules are shown by their SMILES.

T1 sequence (P52333 whole entry): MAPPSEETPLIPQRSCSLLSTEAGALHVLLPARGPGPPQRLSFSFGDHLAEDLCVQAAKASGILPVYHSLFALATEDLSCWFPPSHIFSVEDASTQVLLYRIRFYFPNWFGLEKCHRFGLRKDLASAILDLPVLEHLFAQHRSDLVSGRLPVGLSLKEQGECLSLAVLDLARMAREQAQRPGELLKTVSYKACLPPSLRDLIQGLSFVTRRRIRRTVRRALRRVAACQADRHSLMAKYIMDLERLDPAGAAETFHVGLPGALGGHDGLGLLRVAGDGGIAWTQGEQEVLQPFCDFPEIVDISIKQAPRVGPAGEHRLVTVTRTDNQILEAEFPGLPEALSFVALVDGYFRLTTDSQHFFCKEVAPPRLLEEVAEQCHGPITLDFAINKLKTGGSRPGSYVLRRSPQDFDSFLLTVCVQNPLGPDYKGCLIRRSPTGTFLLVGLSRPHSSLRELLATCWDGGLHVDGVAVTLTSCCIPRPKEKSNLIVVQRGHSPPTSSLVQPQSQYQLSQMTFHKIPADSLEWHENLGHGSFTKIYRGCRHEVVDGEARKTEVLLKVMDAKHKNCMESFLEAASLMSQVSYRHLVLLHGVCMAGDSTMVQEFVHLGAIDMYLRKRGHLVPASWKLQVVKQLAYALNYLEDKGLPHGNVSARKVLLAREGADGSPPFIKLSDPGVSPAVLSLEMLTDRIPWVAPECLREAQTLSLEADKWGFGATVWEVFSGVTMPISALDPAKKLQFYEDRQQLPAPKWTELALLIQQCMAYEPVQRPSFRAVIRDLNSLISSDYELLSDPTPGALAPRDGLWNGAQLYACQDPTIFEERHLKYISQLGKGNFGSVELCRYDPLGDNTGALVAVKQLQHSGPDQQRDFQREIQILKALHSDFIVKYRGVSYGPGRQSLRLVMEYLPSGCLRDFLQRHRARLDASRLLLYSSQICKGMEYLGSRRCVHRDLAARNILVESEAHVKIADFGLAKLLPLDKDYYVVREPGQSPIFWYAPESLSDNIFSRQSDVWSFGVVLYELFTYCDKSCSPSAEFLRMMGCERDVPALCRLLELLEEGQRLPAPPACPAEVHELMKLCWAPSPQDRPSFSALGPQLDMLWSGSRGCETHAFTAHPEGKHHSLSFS

One may read the inhibition as the relative decrease from the control value, in per cent. Higher therefore signals strong suppression. The molecule `CN(C(=O)CN1CCOCC1)c1ccc2sc3c(-c4cccc5c(=O)cc(N6CC7CCC(C6)O7)oc45)cccc3c2c1` [NU5455] returned an inhibition at 1 µM of 6%.
